Measurements as given in patent publication US9469615B2, “Quinoxalines and AZA-quinoxalines as CRTH2 receptor modulators” (Merck Sharp & Dohme Corp., priority 2010, dated 2016).

target: T1, hCRTH2 (Homo sapiens, UniProt Q9Y5Y4); assay: Radioligand binding assay ([3H]PGD2 competition, HEK-hCRTH2 membranes); conditions: [3H]PGD2 competition, Table B
T1 construct: expressed in transfected cells; host or cells: HEK (human embryonic kidney) cells expressing hCRTH2; membrane preparation
T1 sequence (Q9Y5Y4 1-395): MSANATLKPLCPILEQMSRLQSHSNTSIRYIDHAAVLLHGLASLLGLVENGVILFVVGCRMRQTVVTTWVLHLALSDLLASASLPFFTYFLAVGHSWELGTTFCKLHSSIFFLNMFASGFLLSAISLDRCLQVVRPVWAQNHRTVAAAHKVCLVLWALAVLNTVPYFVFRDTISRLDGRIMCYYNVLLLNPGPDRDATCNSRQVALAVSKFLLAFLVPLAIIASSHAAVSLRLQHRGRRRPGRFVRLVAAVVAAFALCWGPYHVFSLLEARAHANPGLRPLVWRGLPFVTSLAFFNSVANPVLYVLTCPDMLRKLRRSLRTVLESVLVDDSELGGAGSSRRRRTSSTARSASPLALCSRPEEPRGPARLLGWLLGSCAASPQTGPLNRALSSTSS
Outline: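 Filter-bound radioactivity was counted by scintillation after 60 min incubations at room temperature. Membranes (8-20 μg) from HEK cells expressing hCRTH2 competed test ligands against 3.0 nM [3H]PGD2 in Tris-HCl pH 7.4 buffer with EDTA and 2 mM MnCl2; 10 μM PGD2 set non-specific binding.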

Ki [nM]	Structure (SMILES)
2.1 to 20	O=C(N[C@@H]1CCCc2cc(Cl)ccc21)c1ccc2nc(-c3ccccc3)c(CCCC(F)(F)C(=O)O)nc2c1 [compound 467, (R)-5-(7-((6-chloro-1,2,3,4-tetrahydronaphthalen-1-yl)carbamoyl)-3-phenylquinoxalin-2-yl)-2,2-difluoropentanoic acid]
2.1 to 20	O=C(N[C@@H]1CCc2cc(F)ccc21)c1ccc2nc(-c3ccccc3)c(CCCC(F)(F)C(=O)O)nc2c1 [compound 468, (R)-2,2-difluoro-5-(7-((5-fluoro-2,3-dihydro-1H-inden-1-yl)carbamoyl)-3-phenylquinoxalin-2-yl)pentanoic acid]
201 to 700	O=C(N[C@H](c1ccc(F)cc1)C(F)(F)F)c1ccc2nc(-c3ccccc3)c(CCCC(F)(F)C(=O)O)nc2c1 [compound 469, (R)-2,2-difluoro-5-(3-phenyl-7-((2,2,2-trifluoro-1-(4-fluorophenyl)ethyl)carbamoyl)quinoxalin-2-yl)pentanoic acid]
20.1 to 200	C[C@H](NC(=O)c1ccc2nc(-c3ccc(F)cc3)c(CCCCC(=O)O)nc2c1)c1ccc(F)cn1 [compound 472, (S)-5-(3-(4-fluorophenyl)-7-((1-(5-fluoropyridin-2-yl)ethyl)carbamoyl)quinoxalin-2-yl)pentanoic acid]
2.1 to 20	C[C@@H](NC(=O)c1ccc2nc(-c3ccccc3)c(CCCCC(=O)O)nc2c1)c1ccc(F)cn1 [compound 473, (R)-5-(7-((1-(5-fluoropyridin-2-yl)ethyl)carbamoyl)-3-phenylquinoxalin-2-yl)pentanoic acid]
2.1 to 20	C[C@H](CCCc1nc2cc(C(=O)N[C@@H]3CCCc4ccccc43)ccc2nc1-c1ccc(F)cc1)C(=O)O [compound 477, (R)-5-(3-(4-fluorophenyl)-7-(((R)-1,2,3,4-tetrahydronaphthalen-1-yl)carbamoyl)quinoxalin-2-yl)-2-methylpentanoic acid]
20.1 to 200	C[C@H](CCCc1nc2cc(C(=O)N[C@H](C)c3ccc(F)cc3)ccc2nc1-c1ccc(F)cc1)C(=O)O [compound 479]
2.1 to 20	O=C(N[C@@H]1CCCc2cc(F)ccc21)c1ccc2nc(-c3ccccc3)c(CCCC(F)(F)C(=O)O)nc2c1 [compound 480, (R)-2,2-difluoro-5-(7-((6-fluoro-1,2,3,4-tetrahydronaphthalen-1-yl)carbamoyl)-3-phenylquinoxalin-2-yl)pentanoic acid]
20.1 to 200	C[C@H](CCCc1nc2cc(C(=O)N[C@@H](C)c3ccc(F)cc3)ccc2nc1-c1ccc(F)cc1)C(=O)O [compound 481, (R)-5-(3-(4-fluorophenyl)-7-(((S)-1-(4-fluorophenyl)ethyl)carbamoyl)quinoxalin-2-yl)-2-methylpentanoic acid]
2.1 to 20	C[C@@H](CCCc1nc2cc(C(=O)N[C@H]3CCCc4ccccc43)ccc2nc1-c1ccc(F)cc1)C(=O)O [compound 483, (S)-5-(3-(4-fluorophenyl)-7-(((S)-1,2,3,4-tetrahydronaphthalen-1-yl)carbamoyl)quinoxalin-2-yl)-2-methylpentanoic acid]
2.1 to 20	C[C@@H](CCCc1nc2cc(C(=O)N[C@H](C)c3ccc(F)cc3)ccc2nc1-c1ccc(F)cc1)C(=O)O [compound 484, (S)-5-(3-(4-fluorophenyl)-7-(((R)-1-(4-fluorophenyl)ethyl)carbamoyl)quinoxalin-2-yl)-2-methylpentanoic acid]
2.1 to 20	C[C@@H]1CN(c2ccc(F)cc2)CCN1C(=O)c1ccc2nc(-c3ccc(Cl)cc3)c(CCCCC(=O)O)nc2c1 [compound 488, (R)-5-(3-(4-chlorophenyl)-7-(4-(4-fluorophenyl)-2-methylpiperazine-1-carbonyl)quinoxalin-2-yl)pentanoic acid]
2.1 to 20	C[C@@H]1CN(c2ccc(F)cc2)CCN1C(=O)c1ccc2nc(-c3ccc(F)cc3)c(CCCCC(=O)O)nc2c1 [compound 489, (R)-5-(3-(4-fluorophenyl)-7-(4-(4-fluorophenyl)-2-methylpiperazine-1-carbonyl)quinoxalin-2-yl)pentanoic acid]
2.1 to 20	C[C@H]1CN(c2ccc(F)cc2)CCN1C(=O)c1ccc2nc(-c3ccc(Cl)cc3)c(CCCCC(=O)O)nc2c1 [compound 490, (S)-5-(3-(4-chlorophenyl)-7-(4-(4-fluorophenyl)-2-methylpiperazine-1-carbonyl)quinoxalin-2-yl)pentanoic acid]
0.1 to 2	O=C(O)CCCCc1nc2cc(C(=O)N[C@@H]3CCOc4ccccc43)ccc2nc1-c1ccc(F)cc1 [compound 491, (R)-5-(7-(chroman-4-ylcarbamoyl)-3-(4-fluorophenyl)quinoxalin-2-yl)pentanoic acid]
2.1 to 20	O=C(O)CCCCc1nc2cc(C(=O)N[C@H]3CCOc4ccccc43)ccc2nc1-c1ccc(F)cc1 [compound 492, (S)-5-(7-(chroman-4-ylcarbamoyl)-3-(4-fluorophenyl)quinoxalin-2-yl)pentanoic acid]
2.1 to 20	C[C@H](NC(=O)c1ccc2nc(-c3ccc(Cl)cc3)c(CCCCC(=O)O)nc2c1)c1cccc2ccccc12 [compound 494, (S)-5-(3-(4-chlorophenyl)-7-((1-(naphthalen-1-yl)ethyl)carbamoyl)quinoxalin-2-yl)pentanoic acid]
2.1 to 20	C[C@H](NC(=O)c1ccc2nc(-c3ccc(Cl)cc3)c(CCCCC(=O)O)nc2c1)c1ccc2ccccc2c1 [compound 496, (S)-5-(3-(4-chlorophenyl)-7-((1-(naphthalen-2-yl)ethyl)carbamoyl)quinoxalin-2-yl)pentanoic acid]

Continued, compound first:

Structure (SMILES)	Ki [nM]
O=C(c1ccc2nc(-c3ccccc3)c(CCCC(F)(F)C(=O)O)nc2c1)N1CCN(c2ccccc2)CC1 [compound 470, 2,2-difluoro-5-(3-phenyl-7-(4-phenylpiperazine-1-carbonyl)quinoxalin-2-yl)pentanoic acid]	20.1 to 200
C[C@@H](NC(=O)c1ccc2nc(-c3ccc(F)cc3)c(CCCCC(=O)O)nc2c1)c1ccc(F)cn1 [compound 471, (R)-5-(3-(4-fluorophenyl)-7-((1-(5-fluoropyridin-2-yl)ethyl)carbamoyl)quinoxalin-2-yl)pentanoic acid]	2.1 to 20
C[C@H](NC(=O)c1ccc2nc(-c3ccccc3)c(CCCCC(=O)O)nc2c1)c1ccc(F)cn1 [compound 474, (S)-5-(7-((1-(5-fluoropyridin-2-yl)ethyl)carbamoyl)-3-phenylquinoxalin-2-yl)pentanoic acid]	2.1 to 20
O=C(N[C@@H]1CCCc2cc(Cl)ccc21)c1ccc2nc(-c3ccc(F)cc3)c(CCCC(F)(F)C(=O)O)nc2c1 [compound 475, (R)-5-(7-((6-chloro-1,2,3,4-tetrahydronaphthalen-1-yl)carbamoyl)-3-(4-fluorophenyl)quinoxalin-2-yl)-2,2-difluoropentanoic acid]	2.1 to 20
O=C(N[C@@H]1CCc2cc(F)ccc21)c1ccc2nc(-c3ccc(F)cc3)c(CCCC(F)(F)C(=O)O)nc2c1 [compound 476, (R)-2,2-dilluoro-5-(7-((5-fluoro-2,3-dihydro-1H-inden-1-yl)carbamoyl)-3-(4-fluorophenyl)quinoxalin-2-yl)pentanoic acid]	20.1 to 200
C[C@H](CCCc1nc2cc(C(=O)N[C@H]3CCCc4ccccc43)ccc2nc1-c1ccc(F)cc1)C(=O)O [compound 478, (R)-5-(3-(4-fluorophenyl)-7-(((S)-1,2,3,4-tetrahydronaphthalen-1-yl)carbamoyl)quinoxalin-2-yl)-2-methylpentanoic acid]	20.1 to 200
C[C@@H](CCCc1nc2cc(C(=O)N[C@@H]3CCCc4ccccc43)ccc2nc1-c1ccc(F)cc1)C(=O)O [compound 482, (S)-5-(3-(4-fluorophenyl)-7-(((R)-1,2,3,4-tetrahydronaphthalen-1-yl)carbamoyl)quinoxalin-2-yl)-2-methylpentanoic acid]	2.1 to 20
C[C@H](NC(=O)c1ccc2nc(-c3ccc(F)cc3)c(CCC[C@H](C)C(=O)O)nc2c1)c1ccc(F)cc1 [compound 485, (S)-5-(3-(4-fluorophenyl)-7-(((S)-1-(4-fluorophenyl)ethyl)carbamoyl)quinoxalin-2-yl)-2-methylpentanoic acid]	2.1 to 20
O=C(N[C@@H]1CCCc2ccccc21)c1ccc2nc(-c3ccc(F)cc3)c(CCCC(F)(F)C(=O)O)nc2c1 [compound 486, (R)-2,2-difluoro-5-(3-(4-fluorophenyl)-7-((1,2,3,4-tetrahydronaphthalen-1-yl)carbamoyl)quinoxalin-2-yl)pentanoic acid]	2.1 to 20
C[C@@H](NC(=O)c1ccc2nc(-c3ccc(F)cc3)c(CCCC(F)(F)C(=O)O)nc2c1)c1ccc(F)cc1 [compound 487, (R)-2,2-difluoro-5-(3-(4-fluorophenyl)-7-((1-(4-fluorophenyl)ethyl)carbamoyl)quinoxalin-2-yl) pentanoic acid]	20.1 to 200
C[C@@H](NC(=O)c1ccc2nc(-c3ccc(Cl)cc3)c(CCCCC(=O)O)nc2c1)c1cccc2ccccc12 [compound 493, (R)-5-(3-(4-chlorophenyl)-7-((1-(naphthalen-1-yl)ethyl)carbamoyl)quinoxalin-2-yl)pentanoic acid]	2.1 to 20
C[C@@H](NC(=O)c1ccc2nc(-c3ccc(Cl)cc3)c(CCCCC(=O)O)nc2c1)c1ccc2ccccc2c1 [compound 495, (R)-5-(3-(4-chlorophenyl)-7-((1-(naphthalen-2-yl)ethyl)carbamoyl)quinoxalin-2-yl)pentanoic acid]	2.1 to 20
